Drawing on patent US10160762B2, “6-alkyl dihydropyrazolopyrimidinone compounds as PDE2 inhibitors” (Merck Sharp & Dohme Corp., priority 2015, dated 2018), this text covers Ki for 13 molecules.

A value given as a limit tells only on which side of the number the result lay.

For orientation: Ki means a measure of affinity in units of concentration, obtained from inhibition or displacement.

This test deals with T1, human PDE2A1 (Homo sapiens, UniProt O00408).
T1 construct: GST; purchased BPS Bioscience (San Diego, Calif.) 60020; host or cells: insect cells
T1 sequence (O00408 1-920 isoform O00408-2): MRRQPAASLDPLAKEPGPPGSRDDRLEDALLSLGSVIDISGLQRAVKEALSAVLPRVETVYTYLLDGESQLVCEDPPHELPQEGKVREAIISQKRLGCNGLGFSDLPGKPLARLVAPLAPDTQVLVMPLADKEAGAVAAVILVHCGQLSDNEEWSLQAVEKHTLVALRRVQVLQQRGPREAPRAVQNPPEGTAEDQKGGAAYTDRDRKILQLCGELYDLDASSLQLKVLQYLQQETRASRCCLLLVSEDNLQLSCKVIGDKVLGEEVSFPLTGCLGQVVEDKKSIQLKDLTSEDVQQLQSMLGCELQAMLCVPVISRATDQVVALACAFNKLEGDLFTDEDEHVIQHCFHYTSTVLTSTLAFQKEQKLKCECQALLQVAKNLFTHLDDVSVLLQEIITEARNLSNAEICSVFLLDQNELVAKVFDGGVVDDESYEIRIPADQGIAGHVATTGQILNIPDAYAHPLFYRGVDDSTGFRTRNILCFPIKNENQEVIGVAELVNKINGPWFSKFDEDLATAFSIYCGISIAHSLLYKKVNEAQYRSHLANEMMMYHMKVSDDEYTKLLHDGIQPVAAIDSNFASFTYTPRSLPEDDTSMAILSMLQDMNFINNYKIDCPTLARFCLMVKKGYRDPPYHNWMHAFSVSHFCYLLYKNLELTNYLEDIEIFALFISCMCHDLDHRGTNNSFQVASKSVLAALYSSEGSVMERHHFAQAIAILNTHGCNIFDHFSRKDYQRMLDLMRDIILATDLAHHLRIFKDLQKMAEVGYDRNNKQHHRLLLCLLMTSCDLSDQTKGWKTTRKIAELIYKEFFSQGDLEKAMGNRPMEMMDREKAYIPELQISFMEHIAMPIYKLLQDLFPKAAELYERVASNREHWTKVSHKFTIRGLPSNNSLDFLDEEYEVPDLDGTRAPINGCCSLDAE
The test can be described thus: IMAP FP PDE assay, human PDE2A1. The settings on record: Lab B; read-out: Human PDE2 Ki (nM) Lab B. It counts as biochemical. In a few lines: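 FP (IMAP) read after 60 min room-temperature reaction of insect-cell GST-human PDE2A1 with 50 nM FAM-cAMP plus 1000 nM cGMP (pH 7.2 Tris, Mg2+, DTT). Compounds titrated 3-fold over ten points. Apparent Ki derived assuming KM of 10,000 nM; enzyme at 20% substrate turnover.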

As to `Cc1nc2c(c(CO)nn2C(C)c2ccc(C(F)(F)F)c(I)c2)c(=O)[nH]1` (single isomer, unassigned) [Example 138, (R)- or (S)-3-(Hydroxymethyl)-1-(1-(3-iodo-4-(trifluoromethyl-)phenyl)ethyl)-6-methyl-1,5-dihydro-4H-pyrazolo[3,4-d]pyrimidin-4-one], the inhibition constant Ki was over 2960 nM.
With `Cc1nc2c(c(CO)nn2C2CCc3cc(C(F)(F)F)ccc32)c(=O)[nH]1` (single isomer, unassigned) [Example 102, (R)- or (S)-3-(Hydroxymethyl)-6-methyl-1-(5-(trifluoromethyl)-2,3-dihydro-1H-inden-1-yl)-1H-pyrazolo[3,4-d]pyrimidin-4(5H)-one], the inhibition constant Ki is over 2960 nM.
As to `CCC(c1ccc(C(F)(F)F)cc1)n1nc(CO)c2c(=O)[nH]c(C)nc21` (single isomer, unassigned) [Example 133, (S)- or (R)-3-(Hydroxymethyl)-6-methyl-1-(1-(4-(trifluoro-methyl)phenyl)propyl)-1H-pyrazolo[3,4-d]pyrimidin-4(5H)-one], the inhibition constant (Ki) was found to be 66 nM.
Turning to `Cc1nc2c(c(CO)nn2C(C)c2ccc(C(F)(F)F)cc2Cl)c(=O)[nH]1` (single isomer, unassigned) [Example 18, (R)- or (S)-1-(1-(2-Chloro-4-(trifluoromethyl)phenyl)ethyl)-3-(hydroxymethyl)-6-methyl-1H-pyrazolo[3,4-d]pyrimidin-4(5H)-one], the Ki is about 2850 nM.
For `Cc1nc2c(c(-c3nnco3)nn2C(C)c2ccc(C(F)(F)F)cc2)c(=O)[nH]1` (single isomer, unassigned) [Example 263], the Ki is 0.88 nM.
Under `Cc1nc2c(c(C3CCCO3)nn2C(C)c2ccc(C(F)(F)F)cc2)c(=O)[nH]1` (single isomer, unassigned) [Example 70, (R, R)- or (R, S) or (S, R) or (S, S)-6-Methyl-3-(-tetrahydrofuran-(trifluoromethyl)phenyl)ethyl)-1H-pyrazolo[3,4-d]pyrimidin-4(5H)-one] stands 159 nM; under `CC(c1ccc(C(F)(F)F)cc1)n1nc(-c2nnco2)c2c(=O)[nH]c(CC3CC3)nc21` (single isomer, unassigned) [Example 341, (S)- or (R)-6-(Cyclopropylmethyl)-3-(1,3,4-oxadiazol-2-yl)-1-(1-(4-(trifluoromethyl)phenyl)ethyl)-1,5-dihydro-4H-pyrazolo[3,4-d] pyrimidin-4-one], 191 nM; under `Cc1nc2c(c(CO)nn2C(C)c2ccc(C(F)(F)F)c(C)c2)c(=O)[nH]1` (single isomer, unassigned) [Example 107, (S)- or (R)-3-(Hydroxymethyl)-6-methyl-1-(1-(3-methyl-4-(trifluoromethyl)phenyl)ethyl)-1H-pyrazolo[3,4-d]pyrimidin-4(5H)-one], 4.5 nM.
The same measure for `Cc1nc2c(c(CC(O)C(F)(F)F)nn2C(C)c2ccc(C(F)(F)F)cc2)c(=O)[nH]1` (single isomer, unassigned) [Example 239]: about 2820 nM; for `Cc1nc2c(c(CO)nn2C(C)c2ccc(C(F)(F)F)c(C)c2)c(=O)[nH]1` (single isomer, unassigned) [Example 106, (R)- or (S)-3-(Hydroxymethyl)-6-methyl-1-(1-(3-methyl-4-(trifluoromethyl)phenyl)ethyl)-1H-pyrazolo[3,4-d]pyrimidin-4(5H)-one]: 633 nM.
Turning to `Cc1nc2c(c(C(F)F)nn2C(C)c2ccc(S(F)(F)(F)(F)F)cc2)c(=O)[nH]1` (single isomer, unassigned) [Example 162], the Ki amounted to 1.8 nM.
The same measure for `CC(=O)NCc1nn(C(C)c2ccc(C(F)(F)F)cc2)c2nc(C)[nH]c(=O)c12` (single isomer, unassigned) [Example 277]: about 1300 nM.
As to `Cc1nc2c(c(C3CCCO3)nn2C(C)c2ccc(C(F)(F)F)cc2)c(=O)[nH]1` (single isomer, unassigned) [Example 72, (S, R)- or (S, S)- or (R, S)- or (R, R)-6-Methyl-3-(-tetrahydrofuran-(trifluoromethyl)phenyl)ethyl)-1H-pyrazolo[3,4-d]pyrimidin-4(5H)-one], the Ki came to 570 nM.
